Broadly, the IC50 is the concentration needed to halve the response being measured. A lower IC50 goes with greater potency.

This experiment concerns the target human full-length MKNK1 (Homo sapiens (Human), UniProt Q9BUB5, T344D). The experiment is described as follows: MKNK1 kinase high ATP assay (TR-FRET). It is filed as biochemical. The conditions noted are these: 2 mM ATP, 15 min preincubation with enzyme, GST-MKNK1 (T344D). A digest of the protocol:
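GST-tagged full-length human MKNK1 (1-424, T344D, baculovirus-expressed) preincubated 15 min at 22 °C with compound, then reacted 30 min at 22 °C with 2 mM ATP and 0.06 μM biotinylated peptide (final) in HEPES pH 7.5. Phospho-substrate by TR-FRET (665/622 nm ratio), normalised to no-inhibitor and no-enzyme controls.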

Sequence of human full-length MKNK1 (Q9BUB5 other isoform, or with tags, fused parts or gaps T344D): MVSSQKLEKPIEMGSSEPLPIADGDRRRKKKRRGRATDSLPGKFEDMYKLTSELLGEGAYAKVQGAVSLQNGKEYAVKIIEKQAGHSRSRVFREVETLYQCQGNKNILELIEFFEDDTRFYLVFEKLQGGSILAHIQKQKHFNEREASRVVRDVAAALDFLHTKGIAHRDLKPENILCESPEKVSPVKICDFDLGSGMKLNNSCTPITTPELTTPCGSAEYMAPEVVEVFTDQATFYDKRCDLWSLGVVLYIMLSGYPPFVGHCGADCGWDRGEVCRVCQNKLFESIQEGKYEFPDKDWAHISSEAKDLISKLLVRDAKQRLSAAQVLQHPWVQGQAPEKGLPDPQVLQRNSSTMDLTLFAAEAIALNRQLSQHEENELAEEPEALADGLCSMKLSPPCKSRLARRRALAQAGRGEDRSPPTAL

Regarding `Cc1cc(Nc2ncnc3sc(C(=O)N4CC(NC(=O)OC(C)(C)C)C4)cc23)c(=O)n2c1C(=O)NC21CCC(F)(F)CC1` [Example 83, tert-Butyl [1-({4-[(4,4-difluoro-8′-methyl-1′,5′-dioxo-1′,5′-dihydro-2′H-spiro[cyclohexane-1,3′-imidazo[1,5-a]pyridin]-6′-yl)amino]thieno[2,3-d]pyrimidin-6-yl}carbonyl)azetidin-3-yl]carbamate], the IC50 was found to be 0.0122 µM. To `Cc1cc(Nc2ncnc3ccc(F)cc23)c(=O)n2c1C(=O)N[C@]21CC[C@@](O)(C(F)(F)F)CC1` [Example 189, (cis)-6′-[(6-fluoroquinazolin-4-yl)amino]-4-hydroxy-8′-methyl-4-(trifluoromethyl)-2′H-spiro[cyclohexane-1,3′-imidazo[1,5-a]pyridine]-1′,5′-dione] belongs 0.274 µM; to `Cc1cc(Nc2ncnc3c2CN(C(=O)OC(C)(C)C)C3)c(=O)n2c1C(=O)NC21CCCCC1` [Example 35, tert-Butyl 4-[(8′-methyl-1′,5′-dioxo-1′,5′-dihydro-2′H-spiro[cyclohexane-1,3′-imidazo[1,5-a]pyridin]-6′-yl)amino]-5,7-dihydro-6H-pyrrolo[3,4-d]pyrimidine-6-carboxylate], 0.0041 µM; to `Cc1cc(Nc2ncnc3c2ncn3CC(=O)O)c(=O)n2c1C(=O)NC21CCCCC1` [Example 48, {6-[(8′-Methyl-1′,5′-dioxo-1′,5′-dihydro-2′H-spiro[cyclohexane-1,3′-imidazo[1,5-a]pyridin]-6′-yl)amino]-9H-purin-9-yl}acetic acid], 0.0294 µM.

Regarding `Cc1cc(Nc2ncnc3ccc(Cl)cc23)c(=O)n2c1C(=O)NC21CCS(=O)(=O)CC1` [Example 199, 6-[(6-chloroquinazolin-4-yl)amino]-8-methyl-2′,3′,5′,6′-tetrahydro-2H-spiro[imidazo[1,5-a]pyridine-3,4′-thiopyran]-1,5-dione 1′,1′-dioxide], 0.0563 µM corresponded to half-maximal inhibition (IC50).

In the case of `Cc1cc(Nc2ccnc(N)n2)c(=O)n2c1C(=O)NC21CCCCC1` [Example 21, 6′-[(2-Aminopyrimidin-4-yl)amino]-8′-methyl-2′H-spiro[cyclohexane-1,3′-imidazo[1,5-a]pyridine]-1′,5′-dione], the IC50 worked out at 0.339 µM. The value for `Cc1cc(Nc2ncnc3sc(C(=O)N4CC(NC(=O)OC(C)(C)C)C4)cc23)c(=O)n2c1C(=O)NC21CCCC1` [Example 62, tert-Butyl [1-({4-[(8′-methyl-1′,5′-dioxo-1′,5′-dihydro-2′H-spiro[cyclopentane-1,3′-imidazo[1,5-a]pyridin]-6′-yl)amino]thieno[2,3-d]pyrimidin-6-yl}carbonyl)azetidin-3-yl]carbamate] was 0.004 µM.

As for `Cc1cc(Nc2ncnc3c(Cl)cc(Cl)cc23)c(=O)n2c1C(=O)NC21CCCCC1` [Example 110, 6′-[(6,8-Dichloroquinazolin-4-yl)amino]-8′-methyl-2′H-spiro[cyclohexane-1,3′-imidazo[1,5-a]pyridine]-1′,5′-dione], the IC50 amounted to 5.58 µM.

For `Cc1cc(Nc2ncnc3sc(C(=O)N(C)CCN(C)C)cc23)c(=O)n2c1C(=O)NC2(C)C` [Example 138, N-[2-(Dimethylamino)ethyl]-N-methyl-4-[(3,3,8-trimethyl-1,5-dioxo-1,2,3,5-tetrahydroimidazo[1,5-a]pyridin-6-yl)amino]thieno[2,3-d]pyrimidine-6-carboxamide], the IC50 was 0.0336 µM. To `Cc1cc(Nc2ncnc(N)n2)c(=O)n2c1C(=O)NC2(C)C` [Example 131, 6-[(4-Amino-1,3,5-triazin-2-yl)amino]-3,3,8-trimethyl-2,3-dihydroimidazo[1,5-a]pyridine-1,5-dione] belongs 0.0322 µM; to `Cc1cc(Nc2ncnc(NC(=O)C3CC3)n2)c(=O)n2c1C(=O)NC2(C)C` [Example 40, N-[4-[(3,3,8-Trimethyl-1,5-dioxo-1,2,3,5-tetrahydroimidazo[1,5-a]pyridin-6-yl)amino]-1,3,5-triazin-2-yl]cyclopropanecarboxamide], 0.0207 µM.

The molecule `Cc1cc(Nc2ncnc3c2ncn3CCO)c(=O)n2c1C(=O)NC21CCCCC1` [Example 44, 6′-{[9-(2-Hydroxyethyl)-9H-purin-6-yl]amino}-8′-methyl-2′H-spiro[cyclohexane-1,3′-imidazo[1,5-a]pyridine]-1′,5′-dione] displayed an IC50 of 0.465 µM. To `Cc1cc(Nc2ncnc3sccc23)c(=O)n2c1C(=O)NC21CCCC1` [Example 56, 8′-Methyl-6′-(thieno[2,3-d]pyrimidin-4-ylamino)-2′H-spiro[cyclopentane-1,3′-imidazo[1,5-a]pyridine]-1′,5′-dione] belongs 0.0001 µM; to `Cc1cc(Nc2ncnc3sc(C(=O)N(C)CCN(C)C)cc23)c(=O)n2c1C(=O)NC21CCC(F)(F)CC1` [Example 82, 4-[(4,4-Difluoro-8′-methyl-1′,5′-dioxo-1′,5′-dihydro-2′H-spiro[cyclohexane-1,3′-imidazo[1,5-a]pyridin]-6′-yl)amino]-N-[2-(dimethylamino)ethyl]-N-methylthieno[2,3-d]pyrimidine-6-carboxamide], 0.0183 µM; to `Cc1cc(Nc2ncnc(N)n2)c(=O)n2c1C(=O)NC21CCC(O)(C(F)(F)F)CC1` (centres unmarked) [Example 127, 6′-[(4-Amino-1,3,5-triazin-2-yl)amino]-4-hydroxy-8′-methyl-4-(trifluoromethyl)-2′H-spiro[cyclohexane-1,3′-imidazo[1,5-a]pyridine]-1′,5′-dione], 0.0712 µM. To `Cc1cc(Nc2ncnc3ccc(Cl)cc23)c(=O)n2c1C(=O)NC21CCCC1` [Example 98, 6′-[(6-Chloroquinazolin-4-yl)amino]-8′-methyl-2′H-spiro[cyclopentane-1,3′-imidazo[1,5-a]pyridine]-1′,5′-dione] belongs 0.0076 µM; to `Cc1cc(Nc2ncnc3ccccc23)c(=O)n2c1C(=O)NC21CCC1` [Example 172, 8′-methyl-6′-[(quinazolin-4-yl)amino]-2′H-spiro[cyclobutane-1,3′-imidazo[1,5-a]pyridine]-1′,5′-dione], 0.0121 µM; to `Cc1cc(Nc2ncnc3[nH]cnc23)c(=O)n2c1C(=O)NC21CCCCC1` [Example 24, 8′-methyl-6′-(9H-purin-6-ylamino)-2′H-spiro[cyclohexane-1,3′-imidazo[1,5-a]pyridine]-1′,5′-dione], 0.0015 µM. To `Cc1cc(Nc2ncnc3ccccc23)c(=O)n2c1C(=O)NC21CCCC1` [Example 187, 8′-methyl-6′-[(quinazolin-4-yl)amino]-2′H-spiro[cyclopentane-1,3′-imidazo[1,5-a]pyridine]-1′,5′-dione] belongs 0.0073 µM; to `Cc1cc(Nc2ncnc3sc(C(=O)O)cc23)c(=O)n2c1C(=O)NC21CCCC1` [Example 58, 4-[(8′-Methyl-1′,5′-dioxo-1′,5′-dihydro-2′H-spiro[cyclopentane-1,3′-imidazo[1,5-a]pyridin]-6′-yl)amino]thieno[2,3-d]pyrimidine-6-carboxylic acid], 0.0188 µM. With `Cc1cc(Nc2ncnc3c2CN(S(=O)(=O)C(F)(F)F)C3)c(=O)n2c1C(=O)NC21CCCCC1` [Example 72, 8′-methyl-6′-({6-[(trifluoromethyl)sulfonyl]-6,7-dihydro-5H-pyrrolo[3,4-d]pyrimidin-4-yl}amino)-2′H-spiro[cyclohexane-1,3′-imidazo[1,5-a]pyridine]-1′,5′-dione], the midpoint of inhibition, the IC50, lay at 0.0304 µM. To `Cc1cc(Nc2ncnc3c2CN(S(C)(=O)=O)C3)c(=O)n2c1C(=O)NC21CCCCC1` [Example 69, 8′-methyl-6′-{[6-(methylsulfonyl)-6,7-dihydro-5H-pyrrolo[3,4-d]pyrimidin-4-yl]amino}-2′H-spiro[cyclohexane-1,3′-imidazo[1,5-a]pyridine]-1′,5′-dione] belongs 0.144 µM; to `Cc1cc(Nc2ncnc3sc(C(=O)N4CC(C#N)C4)cc23)c(=O)n2c1C(=O)NC21CCCC1` [Example 61, 1-({4-[(8′-Methyl-1′,5′-dioxo-1′,5′-dihydro-2′H-spiro[cyclopentane-1,3′-imidazo[1,5-a]pyridin]-6′-yl)amino]thieno[2,3-d]pyrimidin-6-yl}carbonyl)azetidine-3-carbonitrile], 0.0059 µM. The value for `Cc1cc(Nc2ncnc3ccc(Cl)cc23)c(=O)n2c1C(=O)NC2(C)C` [Example 166, 6-[(6-Chloroquinazolin-4-yl)amino]-3,3,8-trimethyl-2,3-dihydroimidazo[1,5-a]pyridine-1,5-dione] was 0.0459 µM; that for `Cc1cc(Nc2ncnc3c2CNC3)c(=O)n2c1C(=O)NC21CCCC1` [Example 126, 6′-(6,7-Dihydro-5H-pyrrolo[3,4-d]pyrimidin-4-ylamino)-8′-methyl-2′H-spiro[cyclopentane-1,3′-imidazo[1,5-a]pyridine]-1′,5′-dione] was 0.0203 µM; that for `CCOC(=O)N1Cc2ncnc(Nc3cc(C)c4n(c3=O)C3(CCCCC3)NC4=O)c2C1` [Example 76, Ethyl 4-[(8′-methyl-1′,5′-dioxo-1′,5′-dihydro-2′H-spiro[cyclohexane-1,3′-imidazo[1,5-a]pyridin]-6′-yl)amino]-5,7-dihydro-6H-pyrrolo[3,4-d]pyrimidine-6-carboxylate] was 0.0177 µM. To `Cc1cc(Nc2ncnc3ccccc23)c(=O)n2c1C(=O)NC21CS(=O)(=O)C1` [Example 182, 8-methyl-6-(quinazolin-4-ylamino)-2H-spiro[imidazo[1,5-a]pyridine-3,3′-thietane]-1,5-dione 1′,1′-dioxide] belongs 0.261 µM; to `Cc1ccc2ncnc(Nc3cc(C)c4n(c3=O)C3(CCCCC3)NC4=O)c2c1` [Example 122, 8′-Methyl-6′-[(6-methylquinazolin-4-yl)amino]-2′H-spiro[cyclohexane-1,3′-imidazo[1,5-a]pyridine]-1′,5′-dione], 0.0132 µM; to `Cc1cc(Nc2ncnc3c2ncn3CC(C)O)c(=O)n2c1C(=O)NC21CCCCC1` (racemic) [Example 39, (RS)-6′-{[9-(2-Hydroxypropyl)-9H-purin-6-yl]amino}-8′-methyl-2′H-spiro[cyclohexane-1,3′-imidazo[1,5-a]pyridine]-1′,5′-dione], 0.744 µM.

Values taken from patent US11311520B2, “Substituted dihydroimidazopyridinediones as MKNK1 and MKNK2 inhibitors” (Bayer Pharma Aktiengesellschaft, priority 2017, dated 2022).
